# Laboratory results reported in the SangsterLogP compilation.
row,SMILES,logP
1,CCCCCCCCCCCCCc1cccc(O)c1,8.84
2,CCCCCc1ccc(O)c(O)c1,3.13
3,CCCCCCCCCCCCCc1ccc(O)cc1,8.2
4,CCCCCCCCCCCCCc1ccc(O)cc1O,6.84
5,CCCCCCCCCCCc1ccc(O)c(O)c1,6.94
6,CCCCCCCCCCCCCCCc1ccc(O)c(O)c1,9.9
7,CCCCCCCCCc1ccccc1O,5.76
8,CCCCCc1cccc(O)c1,3.13
9,CCCCCCCCCCCCCc1ccc(O)c(O)c1,8.42
10,CCCCCCCCCCCCc1ccc(O)cc1,7.91
11,CCCCCCCc1ccc(O)cc1,4.15
12,CCCCCCCCCCCc1ccc(O)cc1,7.18
13,CCCCCCCCCCCCCCCc1cccc(O)c1O,9.27
14,CCCCCCCCCCCCCCCc1ccccc1O,10.1
15,CCCCCCCCCCCc1cccc(O)c1,6.98
16,CCCCCCCCCCCCCCCc1ccc(O)cc1O,8.29
17,CCCCCCCCCCCCCCCc1cccc(O)c1,10.1
18,CCCCCCCCCc1ccc(O)cc1,5.76

# Next, values leading:
row,logP,SMILES
1,6.3,CCCCCCCCCCCc1cccc(O)c1O
2,5.43,CCCCCCCCCCCc1ccc(O)cc1O
3,3.59,CCCCCCCc1cccc(O)c1O
4,4.1,CCCCCCCCCc1ccc(O)cc1O
5,7.75,CCCCCCCCCCCCCc1cccc(O)c1O
6,8.61,CCCCCCCCCCCCCc1ccccc1O
7,5.54,CCCCCCCCCc1ccc(O)c(O)c1
8,4.86,CCCCCCCCCc1cccc(O)c1O
9,4.45,CCCCCCCc1ccccc1O
10,7.17,CCCCCCCCCCCc1ccccc1O
11,2.9,CCCCCCCc1ccc(O)cc1O
12,5.61,CCCCCCCCCc1cccc(O)c1
